According to US8299048B2, “Hexahydrocyclopentyl[f]indazole sulfonamides and derivatives thereof as selective glucocorticoid receptor modulators” (Merck Sharp & Dohme Corp., priority 2008, dated 2012):
pKi: −log10 of the molar value.

target: T1, glucocorticoid receptor (Homo sapiens, UniProt P04150); experiment: Ligand binding assay (GR BIND)
T1 construct: endogenous in cells
T1 sequence (P04150 1-777): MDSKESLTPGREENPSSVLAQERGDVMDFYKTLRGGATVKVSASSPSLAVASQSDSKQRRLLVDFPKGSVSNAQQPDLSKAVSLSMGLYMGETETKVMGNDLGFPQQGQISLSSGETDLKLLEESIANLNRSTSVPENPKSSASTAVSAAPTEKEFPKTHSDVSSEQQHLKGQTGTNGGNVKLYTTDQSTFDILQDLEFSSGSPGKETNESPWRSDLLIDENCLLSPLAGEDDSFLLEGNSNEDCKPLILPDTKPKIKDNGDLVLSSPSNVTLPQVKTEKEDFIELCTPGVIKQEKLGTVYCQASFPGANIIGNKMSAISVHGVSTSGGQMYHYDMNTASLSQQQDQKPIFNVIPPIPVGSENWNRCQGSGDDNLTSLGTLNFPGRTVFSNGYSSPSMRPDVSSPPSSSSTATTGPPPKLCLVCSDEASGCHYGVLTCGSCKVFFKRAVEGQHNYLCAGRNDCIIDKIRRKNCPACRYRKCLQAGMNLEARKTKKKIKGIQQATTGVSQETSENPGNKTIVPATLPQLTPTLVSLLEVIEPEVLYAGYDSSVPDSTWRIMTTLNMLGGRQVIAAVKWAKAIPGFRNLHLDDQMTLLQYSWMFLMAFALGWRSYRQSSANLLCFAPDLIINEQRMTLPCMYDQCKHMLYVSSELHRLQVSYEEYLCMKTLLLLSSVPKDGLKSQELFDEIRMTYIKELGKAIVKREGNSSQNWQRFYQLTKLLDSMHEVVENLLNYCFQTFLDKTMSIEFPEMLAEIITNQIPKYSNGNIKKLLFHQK
Method in brief: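 Displacement of tritiated dexamethasone (6 nM trace solution) from receptor in cell supernatant was measured after overnight incubation at 4 °C in molybdate-containing TEGM, pH 7.2, 2% ethanol. Hydroxylapatite pulled down the receptor–ligand complex for filter washing and scintillation counting, with dexamethasone as reference.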

Compound | pKi
COc1ccccc1CCN(C[C@H]1CCC2=Cc3c(cnn3-c3ccccc3)C[C@@]21C)S(=O)(=O)CC(F)(F)F [Example 139, 2,2,2-trifluoro-N-[2-(2-methoxyphenyl)ethyl]-N-{[(4αR,5S)-4α-methyl-1-phenyl-1,4,4α,5,6,7-hexahydrocyclopenta[f]indazol-5-yl]methyl}ethanesulfonamide] | 8.82
C[C@]12Cc3cnn(-c4ccccc4)c3C=C1CC[C@@H]2CN(CCc1ccccn1)S(=O)(=O)Cc1cccnc1 [Example 140, N-{[(4αR,5S)-4α-methyl-1-phenyl-1,4,4α,5,6,7-hexahydrocyclopenta[f]indazol-5-yl]methyl}-1-pyridin-3-yl-N-(2-pyridin-2-ylethyl)methanesulfonamide] | 8.39
C[C@]12Cc3cnn(-c4ccccc4)c3C=C1CC[C@@H]2CN(CCc1ccccc1O)S(=O)(=O)Cc1cccnc1 [Example 141, N-[2-(2-hydroxyphenyl)ethyl]-N-{[(4αR,5S)-4α-methyl-1-phenyl-1,4,4α,5,6,7-hexahydrocyclopenta[f]indazol-5-yl]methyl}-1-pyridin-3-ylmethanesulfonamide] | 8.96
C[C@]12Cc3cnn(-c4ccc(F)cc4)c3C=C1CC[C@@H]2CN(CC(O)c1ccccn1)S(=O)(=O)CC(F)(F)F (stereo partly drawn) [Example 142, 2,2,2-trifluoro-N-{[(4αR,5S)-1-(4-fluorophenyl)-4α-methyl-1,4,4α,5,6,7-hexahydrocyclopenta[f]indazol-5-yl]methyl}-N-(2-hydroxy-2-pyridin-2-ylethyl)ethanesulfonamide] | 9.05
C[C@]12Cc3cnn(-c4ccc(F)cc4)c3C=C1CC[C@@H]2CN(CC(O)c1cccnc1)S(=O)(=O)CC(F)(F)F (stereo partly drawn) [Example 143, 2,2,2-trifluoro-N-{[(4αR,5S)-1-(4-fluorophenyl)-4α-methyl-1,4,4α,5,6,7-hexahydrocyclopenta[f]indazol-5-yl]methyl}-N-(2-hydroxy-2-pyridin-3-ylethyl)ethanesulfonamide] | 7.88
C[C@]12Cc3cnn(-c4ccc(F)cc4)c3C=C1CC[C@@H]2CN(CC(O)c1ccncc1)S(=O)(=O)CC(F)(F)F (stereo partly drawn) [Example 144, 2,2,2-trifluoro-N-{[(4αR,5S)-1-(4-fluorophenyl)-4α-methyl-1,4,4α,5,6,7-hexahydrocyclopenta[f]indazol-5-yl]methyl}-N-(2-hydroxy-2-pyridin-4-ylethyl)ethanesulfonamide] | 9.05
C[C@]12Cc3cnn(-c4ccc(F)cc4)c3C=C1CC[C@@H]2CN(CC(OS(=O)(=O)CC(F)(F)F)c1ccccn1)S(=O)(=O)CC(F)(F)F (stereo partly drawn) [Example 145, 2-{{[(4αR,5S)-1-(4-fluorophenyl)-4α-methyl-1,4,4α,5,6,7-hexahydrocyclopenta[f]indazol-5-yl]methyl}[(2,2,2-trifluoroethyl)sulfonyl]amino}-1-pyridin-2-ylethyl 2,2,2-trifluoroethanesulfonate] | 9.00
CC(CN(C[C@H]1CCC2=Cc3c(cnn3-c3ccc(F)cc3)C[C@@]21C)S(=O)(=O)CC(F)(F)F)c1cccnc1 (stereo partly drawn) [Example 146, 2,2,2-trifluoro-N-{[(4αR,5S)-1-(4-fluorophenyl)-4α-methyl-1,4,4α,5,6,7-hexahydrocyclopenta[f]indazol-5-yl]methyl}-N-(2-pyridin-3-ylpropyl)ethanesulfonamide] | 9.10
C[C@]12Cc3cnn(-c4ccc(F)cc4)c3C=C1CC[C@@H]2CN(CCC(N)C(F)(F)F)S(=O)(=O)CC(F)(F)F (stereo partly drawn) [Example 147, N-(3-amino-4,4,4-trifluorobutyl)-2,2,2-trifluoro-N-{[(4aR,5S)-1-(4-fluorophenyl)-4α-methyl-1,4,4α,5,6,7-hexahydrocyclopenta[f]indazol-5-yl]methyl}ethanesulfonamide] | 8.49
CCCS(=O)(=O)N(CC(O)C(F)(F)F)C[C@H]1CCC2=Cc3c(cnn3-c3ccc(F)cc3)C[C@@]21C (stereo partly drawn) [Example 148, N-{[(4αR,5S)-1-(4-fluorophenyl)-4α-methyl-1,4,4α,5,6,7-hexahydrocyclopenta[f]indazol-5-yl]methyl}-N-(3,3,3-trifluoro-2-hydroxypropyl)propane-1-sulfonamide] | 8.80
